Laboratory results taken from US20170281799A1, “SYSTEMS AND METHODS FOR SCREENING OTOTOXIC, OTOPROTECTIVE, AND OTOREGENERATIVE COMPOUNDS USING AQUATIC MODELS” (ARIZONA BOARD OF REGENTS ON BEHALF OF THE UNIVERSITY OF …, priority 2014, published 2017).
Entries after “also recorded” stand apart in the source; their conditions may differ. Each block holds one compound with its values, some of them ahead of it.

Experiments:
zebrafish [1] = test: Rheotaxis behavior with next generation video imaging and semi-automated image analysis; type: in vivo, Danio rerio
Excerpt: Sulforaphane, a naturally occurring molecule within the isothiocyanate group of organosulfur compounds, is present within cruciferous vegetables such as broccoli. Low doses of SF induce production of antioxidant enzymes such as glutathione transferases, UDP-glucuronyltransferase, NAD(P)H:quinone oxidoreductase I and heme oxygenase-1 (HO-1) via NRF2 mediated activation of ARE promoters upstream from their genes—thereby allowing a diverse array of electrophilic and oxidative toxicants to be eliminated in a coordinated manner. Four-and-half dpf larvae were incubated in sulforaphane at a concentration of 10 μM for 12 hours and subsequently incubated for 4 hours in 1000 μM cisplatin (SF10/Cis 1000). An SF-alone (SF10/Cis 0) group and DMSO vehicle controls (DMSO/Cis 1000; DMSO/Cis 0) were also tested. To assess the otoprotective effects of SF on hair cell anatomy, aggregate neuromast damages were determined for each treatment group.

zebrafish [2] = test: Behavioral assay: rheotaxis in swimming test apparatus; type: in vivo, Danio rerio
Excerpt: The custom-built behavioral apparatus consists of 6 experimental lanes with laminar flow velocity controlled at 0.15 cm/sec, allowing the simultaneous testing of up to 6 differing experimental conditions. Each lane measures 10.2 cm in height×9.9 cm in width×25.4 cm in length. Lanes are partitioned with metal mesh dividers to contain fish in one central area, measuring 5.0 cm length×9.9 cm width, allowing for image capture (FIG. 3). E2 medium flows from a header tank through the experimental lanes to a media reserve tank and is then recycled via pump back to the header tank. The pump is used to overdrive a header standpipe, resulting in constant pressure that is split evenly between the lanes, controlling the flow. A heater located in the reserve media tank maintains temperature at 28±0.5° C. Total system volume capacity (experimental apparatus+header and reserve tanks) is approximately 210 L, while operating volume is 152 L. The flow is calibrated as follows: lane width (9.9 cm)×total number of lanes (6)×operational water height (5.8 cm)×desired flow (0.15 cm/sec)=flow rate of 51.7 cubic centimeters/seconds. Water traveling from experimental lanes to the reserve media tank is received in a 1000 mL beaker and the rate of water flow is adjusted until it takes 19.3 seconds to fill the beaker to 1000 mL. Flow speed is calibrated before every experiment. With the system calibrated, flow may then be turned on or off via a separate valve, without any further adjustments.
The experimental system is housed in a cabinet creating a condition free of ambient light, thus negating any influence of visual input on zebrafish swimming behavior. Infrared light provides lighting from which images were acquired. Video capture is accomplished with under-mounted Samsung SCB-200 high-resolution video cameras (FIG. 3). In conducting the assay, five-day post fertilization (5 dpf) zebrafish are treated with several different experimental conditions (see below for detailed methods), rinsed three times in embryo medium, transferred to the experimental lanes, and the cabinet is then closed for 30 minutes to allow for dark adaptation. Image acquisition begins with 2 minutes of filming under no-flow conditions, next the water flow is turned on and the fish are allowed 1 minute to acclimate to the flow and then 2 minutes of flow behavior is recorded (FIG. 4).
Rheotaxis was defined as fish oriented headfirst, with an axial alignment within 30 degrees on either side of the directional flow vector and attempting to swim into the current. […] From the still images, the angle of every fish was measured using ImageJ and placed into an Excel spreadsheet for data processing (FIG. 6). […] Therefore, there were no negative values or angles measured between 181-360 degrees. […]

lateral line hair cells = test: Anatomical assay: YO-PRO1 staining, aggregate neuromast damage score; conditions: for Anatomical Assay Damage Score (Mean ± S.D.): score 0-21 per fish
Procedure: Following the drug exposure (see below for detailed methods), larvae were fluorescently stained/labeled in embryo medium containing 6 μM YO-PRO1 (Invitrogen; Y3603) for 20 min. YO-PRO1 is a common vital dye used for staining viable lateral line hair cells in zebrafish (Coffin A B, et al., Zebrafish. 2010 March; 7(1):3-11; Ou H C, et al., Drug Discov Today. 2010 April; 15(7-8):265-71; Ou H C, et al., Hear Res. 2007 November; 233(1-2):46-53; Santos F, et al., Hear Res. 2006 March; 213(1-2):25-33). Concentration and duration were optimized for this purpose. After labeling, the larvae were rinsed three times in embryo media and then anesthetized using 0.5 mM of MS-222 (Tricaine Methanesulfonate, Western Chemical Inc.) (Buck L M, et al., Hear Res. 2012 February; 284(1-2):67-81). The larvae were fixed in 2% paraformaldehyde for 1 hour at room temperature and stored in PBS overnight at 4° C. Fixed larvae were then mounted in 6% methylcellulose (Sigma; M7140) in 0.2 mm silicone chambers and covered with No. 1.5 cover glass (Warner Instruments; 64-0718) for confocal microscopy. Larvae were observed under a confocal microscope (Leica SP5) using 20× dry and 40× oil immersion lenses.
Treatment groups consisted of 3-7 fish. Seven ventral neuromasts of the posterior lateral line (P3, P4, P5, P6, P7, P8, and P9) were selected for determination of the “neuromast damage score” per fish (FIG. 1). Each neuromast was scored from 0 to 3. A score of 0 represents no damage with normal staining; 1 represents mild damage with moderate staining; 2 represents severe damage with poor staining; 3 represents total hair cell/neuromast destruction with no staining (FIG. 2). Seven scores per fish were then added to generate the total “aggregate neuromast damage score.” The lowest possible score for an individual fish is 0, representing no damage, with the highest possible score for a fish being 21, representing complete damage. Separate individuals (scorer A, B and C) were trained in the counting technique and “neuromast damage scores” were generated independently with blinding of experimental conditions to insure unbiased assessment. The mean score of the three evaluators was used to determine the final “neuromast damage score.” Inter-scorer variation was validated by using the Pearson's correlation coefficient.
In order to establish the sensitivity of the newly developed behavior assay for detecting damage caused by varying doses of cisplatin, a cisplatin dose-dependent exposure experiment was prepared. Cisplatin solutions were prepared from powder (Sigma; P4394) in embryo medium. Five dpf larvae were incubated in cisplatin at concentrations of 0, 250, 500, 750, or 1000 μM (Cis 0, Cis 250, Cis 500, Cis 750, and Cis 1000, respectively) for 4 hours at room temperature or 28±0.5° C. then rinsed 3 times in embryo media.
In order to assess the effect of dexamethasone on cisplatin-induced ototoxicity using the behavior/anatomical assay technique, dexamethasone pre-exposure groups were prepared. Dexamethasone (Sigma; D4902) stock solution (25 mg/ml) was prepared with DMSO (Dimethyl Sulphoxide, Sigma; D2650) and diluted with embryo medium. Four-and-half dpf larvae were incubated in dexamethasone at a concentration of 5 μM for 12 hours at 28.5±0.5° C. and subsequently rinsed in embryo media. Four-and-half dpf fish were used to allow for a half-day of maturation to ensure all fish would be 5 dpf at time of behavioral/anatomical testing. […]

[3] = dexamethasone 5 μM 12 hours alone, no cisplatin
[4] = dexamethasone 5 μM pre-exposure 12 hours, then cisplatin 1000 μM 4 hours

Compound: N.N.[Cl][Pt][Cl] [Cis, cisplatin]
rheotaxis index (zebrafish [1]; cisplatin 1000 μM, new image analysis techniques, controls >85%): 45%
rheotaxis performance versus cisplatin dosage (in words) (zebrafish [2]; in vivo): clear linear correlation was found between increasing cisplatin dosage and decreased rheotaxis performance

Behavioral Assay Rheotaxia Index (%) (Mean ± S.D.) (zebrafish [2]; [3]): 35.6 ± 12.5%
Compound: C[C@@H]1C[C@H]2[C@@H]3CCC4=CC(=O)C=C[C@]4(C)[C@@]3(F)[C@@H](O)C[C@]2(C)[C@@]1(O)C(=O)CO [Dex, dexamethasone]
hair cell damage caused by dexamethasone alone (in words) (lateral line hair cells; Dex 5/Cis 0): no hair cell damage; also recorded: no statistically significant difference between Cis 0 and Dex 5/Cis 0
Anatomical Assay Damage Score (Mean ± S.D.) (lateral line hair cells; [3]): 2.40 ± 0.64
Anatomical Assay Damage Score (Mean ± S.D.) (lateral line hair cells; [4]): 5.20 ± 1.53
damage by dexamethasone-alone treatment, rheotaxis (in words) (zebrafish [2]; Dex 5/Cis 0): No damage was induced
Behavioral Assay Rheotaxia Index (%) (Mean ± S.D.) (zebrafish [2]; [4]): 25.5 ± 5.2%

Compound: C[S+]([O-])CCCCN=C=S (centres unmarked) [sulforaphane]
effect of pre-exposure on rheotaxis after cisplatin (in words) (zebrafish [1]; SF10/Cis 1000): dramatically improved the ability of fish to perform rheotaxis
hair cell damage caused by sulforaphane alone (in words) (lateral line hair cells; SF10/Cis 0: 10 μM, 12 hours): caused no hair cell damage
rescue of hair cell architecture against cisplatin (in words) (lateral line hair cells; SF10/Cis 1000: 10 μM 12 hours, then 1000 μM cisplatin 4 hours): partial rescue of hair cell architecture
